Results on 1 molecule are retold here after publication PMC9012168 (BioProcess international, 2018).

This data set in a line: in vitro. In kind it is cell-based. Conditions: human.

As usually defined, the IC50 is the midpoint of a concentration-inhibition curve. A lower IC50 goes with inhibition by little substance.

Starred links: 1 amine or outer side, 2 acyl side, 3 side chain; linkers in the order of their positions; H or OH if unused. Positions of bridges follow the written chain, without caps; N, C: chain ends. Non-standard residues stand in square brackets, D forms with d. Residues, ends and D or L forms follow the SMILES beside them. Chains are numbered I, II in the order given. Actinocin(9to1) = Cc1c2oc3c(C)ccc(C(=O)[*:1])c3nc-2c(C(=O)[*:2])c(N)c1=O; NMeV = CN[C@H](C(=O)O)C(C)C; Sar = CNCC(=O)O

For `Cc1c2oc3c(C)ccc(C(=O)N[C@@H]4C(=O)N[C@H](C(C)C)C(=O)N5CCC[C@H]5C(=O)N(C)CC(=O)N(C)[C@@H](C(C)C)C(=O)O[C@@H]4C)c3nc-2c(C(=O)N[C@@H]2C(=O)N[C@H](C(C)C)C(=O)N3CCC[C@H]3C(=O)N(C)CC(=O)N(C)[C@@H](C(C)C)C(=O)O[C@@H]2C)c(N)c1=O` [dactinomycin] (I: T[dV]P[Sar][NMeV] / II: T[dV]P[Sar][NMeV]; ester I:1-I:C, II:1-II:C; linker I:N-II:N via Actinocin(9to1)), the IC50 was 8.5 nM. That is a single-digit nanomolar value.
